The target in test [1] is T1, B2 human receptor (Homo sapiens, UniProt P30411).
T1 construct: expressed in transfected cells; host or cells: CHO cells
T1 sequence (P30411 1-391): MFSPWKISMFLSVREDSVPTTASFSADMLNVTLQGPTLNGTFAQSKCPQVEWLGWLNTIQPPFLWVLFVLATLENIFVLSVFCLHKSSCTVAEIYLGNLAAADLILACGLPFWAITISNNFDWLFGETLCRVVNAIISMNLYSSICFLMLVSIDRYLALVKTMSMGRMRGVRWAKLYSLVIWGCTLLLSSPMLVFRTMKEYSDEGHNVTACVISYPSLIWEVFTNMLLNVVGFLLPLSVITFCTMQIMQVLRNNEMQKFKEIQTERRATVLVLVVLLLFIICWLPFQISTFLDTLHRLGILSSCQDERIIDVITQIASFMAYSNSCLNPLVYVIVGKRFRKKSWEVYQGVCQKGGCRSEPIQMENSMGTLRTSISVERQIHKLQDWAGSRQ
The test can be described thus: Binding to the human B2 receptor expressed in CHO cells.

Test [2] addresses T1, B2 human receptor. The test can be described thus: cell-based.
Another test concerns BK-induced bronchospasm. Briefly: Inhibition of BK-induced bronchospasm in the guinea pig. Format: in vivo. The settings on record: intratracheal dose which inhibited by 80% bronchial constriction for at least 210 min; for ED80: Cavia porcellus, inhaled or nasal, 3.5 h, read-out: it Dose. The method, then: The in vivo activity of the compounds of the present invention was evaluated as effectiveness in inhibiting BK-induced bronchospasm in the guinea pig (Tramontana, et al., J. Pharmacol. Exp. Therap. 296:1051-1057 (2001)), measuring the it dose (it=intratracheal administration) (in nmols/kg) which inhibited by 80% bronchial constriction for at least 210 min.

[3] abbreviates: human B2 receptor expressed in CHO cells, read-out: pKi (converted).
[4] abbreviates: antagonistic activity, bradykinin-induced inositol production, CHO cells transfected with B2 human receptor, read-out: pA2 (converted).
[5] abbreviates: human B2 receptor expressed in CHO cells.
The mark [6] stands for this setting: antagonistic activity, bradykinin-induced inositol production, CHO cells transfected with B2 human receptor.

Here are results for ten compounds from patent US7645759B2, “Non-peptide bradykinin antagonists and pharmaceutical compositions therefrom” (Istituto Luso Farmaco D'Italia S.p.A., priority 2004, dated 2010).

Structures can show the parent of a compound that is named as a salt. Where two headings read alike, the source gives them in different places.

Turning to `Cc1ccc2cccc(OCc3c(Cl)ccc(S(=O)(=O)NC4(C(=O)N5CCN(C(=O)C(N)CCCCN(C)C)CC5)CCCC4)c3Cl)c2n1` (stereo not shown) [WO03103671 ex 57], at B2 human receptor [1], the Ki is 1.58 nM. At B2 human receptor [2], the Kb was 5.01 nM. Besides, the ED80 with BK-induced bronchospasm was found to be 0.3 µmol/kg.

In the case of `Cc1cc(C)c2cccc(OCc3c(Cl)ccc(S(=O)(=O)NC4(C(=O)N5CCN(C(=O)C(N)CCCCN)CC5)CCCC4)c3Cl)c2n1` (stereo not shown) [WO03103671 ex 63], on B2 human receptor [1] (setting [3]), the Ki is 0.794 nM. For the same compound, the Kb at B2 human receptor [2] (setting [4]) was 1.26 nM. In addition, the ED80 with BK-induced bronchospasm turned out to be 0.3 µmol/kg.

`Cc1cc(C)c2cccc(OCc3c(Cl)ccc(S(=O)(=O)NC4(C(=O)N5CCN(C(=O)[C@@H](N)CCC[N+](C)(C)C)CC5)CCOCC4)c3Cl)c2n1.Cl.Cl.[Cl-]` [Example 1, (4-(S)-amino-5-(4-{4-[2,4-dichloro-3-(2,4-dimethyl-quinolin-8-yloxymethyl)-benzenesulfonylamino]tetrahydropyran-4-carbonyl}piperazin-1-yl)-5-oxo-pentyl]trimethyl-ammonium chloride, dihydrochloride] displayed a pKi on B2 human receptor [1] (setting [5]) of 10.3. This compound also came in with a pA2 on B2 human receptor [2] (setting [6]) of 10.3. The ED80 in the test with BK-induced bronchospasm was determined as 0.03 µmol/kg.

For the compound `Cc1cc(C)c2cccc(OCc3c(Cl)ccc(S(=O)(=O)NC4(C(=O)N5CCN(C(=O)C(N)CCCCN(C)C)CC5)CCCC4)c3Cl)c2n1` (stereo not shown) [WO03103671 ex 59], at B2 human receptor [1] (setting [3]), the Ki was 1.58 nM. Besides, on B2 human receptor [2] (setting [4]), the Kb was 1 nM. Moreover, the ED80 in the test on BK-induced bronchospasm came to 0.3 µmol/kg.

Turning to `Cc1ccc2cccc(OCc3c(Cl)ccc(S(=O)(=O)NC4(C(=O)N5CCN(C(=O)[C@@H](N)CCC[N+](C)(C)C)CC5)CCOCC4)c3Cl)c2n1` [Example 2, (4-(S)-Amino-5-(4-(4-(2,4-dichloro-3-(2-methyl-quinolin-8-yloxymethyl)-benzenesulfonylamino)tetrahydropyran-4-carbonyl)-piperazin-1-yl-)5-oxo-pentyl)-trimethylammonium chloride, hydrochloride], the Ki at B2 human receptor [1] (setting [3]) was 0.0631 nM. Moreover, the Kb at B2 human receptor [2] (setting [4]) was 0.2 nM. Besides, the ED80 in the test on BK-induced bronchospasm worked out at 0.1 µmol/kg.

Regarding `Cc1ccc2cccc(OCc3c(Cl)ccc(S(=O)(=O)NC4(C(=O)N5CCN(C(=O)C(N)CCCNC(=N)N)CC5)CCCC4)c3Cl)c2n1` (stereo not shown) [WO03103671 ex 55], on B2 human receptor [1], the Ki is 2 nM. The compound also showed a Kb on B2 human receptor [2] of 3.98 nM. Also, the ED80 in the test with BK-induced bronchospasm stood at 0.3 µmol/kg.

For `Cc1cc(C)c2cccc(OCc3c(Cl)ccc(S(=O)(=O)NC4(C(=O)N5CCN(C(=O)C(CCCC[N+](C)(C)C)[N+](C)(C)C)CC5)CCCC4)c3Cl)c2n1` (stereo not shown) [WO03103671 ex 88], the Ki on B2 human receptor [1] is 0.2 nM. On B2 human receptor [2], this compound gave a Kb of 6.31 nM.

For the compound `CCN=C(NCC)NCCCC(N)C(=O)N1CCN(C(=O)C2(NS(=O)(=O)c3ccc(Cl)c(COc4cccc5c(C)cc(C)nc45)c3Cl)CCCC2)CC1` (stereo not shown) [WO03103671 ex 44], the Kb at B2 human receptor [2] is 1 nM. Moreover, the ED80 with BK-induced bronchospasm was 0.3 µmol/kg.

As to `Cc1cc(C)c2cccc(OCc3c(Cl)ccc(S(=O)(=O)NC4(C(=O)N5CCN(C(=O)[C@@H](N)CCC[N+](C)(C)C)CC5)CCCC4)c3Cl)c2n1` [Example 4, [4-(S)-Amino-5-(4-{1-[2,4-dichloro-3-(2,4-dimethyl-quinolin-8-yloxymethyl)-benzenesulfonylamino]cyclopentanecarbonyl}piperazin-1-yl)-5-oxo-pentyl]-trimethyl-ammonium chloride, dihydrochloride.], on B2 human receptor [1] (setting [3]), the Ki was 0.0794 nM. The Kb on B2 human receptor [2] (setting [4]) is 0.398 nM. The ED80 in the test on BK-induced bronchospasm was found to be 0.1 µmol/kg.

In turn, `Cc1cc(C)c2cccc(OCc3c(Cl)ccc(S(=O)(=O)NC4(C(=O)N5CCN(C(=O)CCCC[N+](C)(C)C)CC5)CCOCC4)c3Cl)c2n1.O=C([O-])C(F)(F)F` [Example 3, [5-(4-{4-[2,4-Dichloro-3-(2,4-dimethyl-quinolin-8-yloxymethyl)-benzene-sulfonylamino]tetrahydropyran-4-carbonyl}piperazin-1-yl)-5-oxo-pentyl]-trimethyl-ammonium trifluoroacetate.] showed a pKi at B2 human receptor [1] (setting [5]) of 10.1. The compound also had a pA2 on B2 human receptor [2] (setting [6]) of 9.5. Further, the “it Dose” value in the test with BK-induced bronchospasm came out at 100 nmols/kg.

The term pKi denotes the negative decadic logarithm of the Ki, by convention in mol/L. In general, pA2 refers to the negative logarithm of the molar antagonist concentration that doubles the agonist concentration needed for the same response. Higher therefore signals a more potent antagonist.
